3 compounds from patent US12098217B2, “Fusion peptides as antimicrobial agents” (CENTRE NATIONAL DE LA RECHERCHE SCIENTIFIQUE, priority 2019, dated 2024) can be followed below.

In general, Kd refers to the constant that tells how readily two partners part at equilibrium. High values mean a looser complex, low ones a tighter complex.

Where only a bound is given, the exact number is not on record here.

One test concerns E. coli D22 strain. As to the kind of experiment: microbe, parasite or virus in culture. The test is classed as cell-based. From the text:
E. coli strain D22 (F-, IpxC101, proA23, lac-28, tsx-81, trp-30, his-51, tufA1, rpsL173(strR), ampCp-1 was purchased at E. coli Genetic Stock Center (Yale University) and used in the determination of MIC and in the peptide penetration assays. E. coli ATCC23724 cells were used to infect D. melanogaster flies. 70S ribosomes were purified from the E. coli MRE600 strain (Accession AY140951) and BL21 (DE3) pLys strain was used for production of the DnaN protein.
E. coli strains were cultivated on either agar or liquid 1× Mueller Hinton broth unless specified. MIC assays were performed in duplicate in 96-well microtiter plates on the basis of the protocol recommended by the Clinical and Laboratory Standards Institute. Briefly, a mix of 5-6 fresh (less than 36 hours) colonies grown on MH agar plates were inoculated in 3 ml of MH broth and incubated for about 16 h at 37° C. under agitation. 30 μl of this saturated culture were inoculated in 3 ml of fresh medium and allowed to grow until OD600 nm of about 0.6-0.8. Dilution to an OD600 nm of 0.002 was made in MH broth. Within a time laps not exceeding 30 min, 50 μl of this cell suspension was added to 50 μl of MH broth (containing or not the peptide/antibiotic diluted in MH broth) in wells of a 96-well round bottom microwell plate (Greiner; final cell density about 2 to 5×10^5 cfu/ml). Plates were incubated at 37° C. for 18-24 h and final turbidity of each well was measured at 620 nm using a Multiskan FC microplate reader (Thermo Scientific). MIC was defined as the minimal antibiotic concentration that result in no increase of turbidity at that time. Each MIC determination was performed in duplicate and at least in two independent experiments. Plating of 75 μl of the content of the wells of interest on LB Agar plates was used to determine the MBC that is defined by a decrease of at least 99.9% of cell viability as compared to the number of viable cells in the inoculum (about 2 to 5×10^4 cfu).

Test [1] addresses T1, E. coli SC (^EcSC, beta ring, DnaN) (Escherichia coli, UniProt P0A988).
T1 construct: inferred from the pET15b vector and the Ni-NTA/imidazole purification; made in house; host or cells: E. coli BL21 (DE3) pLys
The test can be described thus: ITC, peptide interaction with E. coli sliding clamp. The test is classed as binding. The settings on record: for ΔH (kcal/mole): ITC 30° C. (303.15 K); for ΔH (kcal/mole) / Kd (nM) / ΔG (kcal/mole) / −TΔS (kcal/mole): Table 2A, ^EcSC, Ni = no specific interaction. The method, then: The DnaN protein was expressed from plasmids pET15b, containing the dnaN gene from E. coli, transfected in BL21 (DE3) pLys E. coli strain. Cells were grown in LB at 37° C. to OD 0.5, then induced by IPTG (0.1 mM) at 28° C. overnight. DnaN protein was first enriched on a Ni-NTA column, eluted with an imidazole step (300 mM) and further purified on a Source Q column in buffer containing 20 mM Tris HCl pH 7.5, 0.5 mM EDTA and 10% glycerol, using a gradient from 0 to 0.5 M NaCl. After a final ultracentrifugation (45K, 1 h, 20° C.), soluble proteins were concentrated on a Centricon 30K (Millipore) in the same buffer and stored at 4° C. in 2 M ammonium sulfate.
ITC experiments were performed on a iTC200 (Microcal Malvern Panalytical) or PEAQ-ITC instrument (Microcal Malvern Panalytical). The E. coli SC were washed extensively with ITC buffer (R1 buffer: 10 mM Hepes pH 7.4, 0.15 M NaCl, 3 mM EDTA) on Centrikon 10K at 4° C. before ITC experiments. […] Similarly, E. coli 70S ribosome particles were also washed extensively with ITC 70S buffer (50 mM Tris HCl pH7.5, 30 mM KCl, 70 mM NH4Cl, 7 mM MgCl2, 1 mM DTT, 5% glycerol) on Centrikon 100K at 4° C. before ITC experiments. […] […] Data were corrected from control experiments in which peptides were injected in ITC buffer solution. Each titration was performed at least twice. Analyses of experimental data were performed with AFFINImeter software (https://www.affinimeter.com; S4S, Santiago de Compostela, Spain).
(In general: In ITC the heat of successive injections is recorded.)

The next test concerns E. coli D22 cells. Particulars: FIG. 1. The method, then:
FIG. 1 concerns the analysis of peptide penetration into E. coli cells. (a) Fluorescence microscopy of E. coli cells exposed to the three different FITC labeled peptides.
In order to analyse the penetration capacity of the peptides in E. coli D22 cells, FITC-labeled peptides were added to 1 ml of bacterial cultures (OD600=0.8) at a final concentration of 8 μg/ml. The cells were allowed to acquire the peptides for 1 h at 37° C., washed 3 times with 0.5 ml PBS, fixed with 1% formaldehyde solution in PBS for 45 min at room temperature, washed 3 times with 0.5 ml PBS and finally resuspended in 50 μl PBS. Cells were visualized using a Leica DM5500 microscope equipped with a 100× objective and images were processed using Fiji software. One-way ANOVA statistical analysis was performed with the R package.

In test [2] the test system is E. coli 70S ribosome (^Ec70S). As to the kind of experiment: ITC, peptide interaction with E. coli 70S ribosome. The test is classed as binding. The settings on record: ITC 30° C., Table 2B, ^Ec70S; for Kd: FITC peptides (*), values not well defined, weak interaction; for ΔG / ΔH / −TΔS: Ni = no specific interaction, FITC peptides (*) values not well defined. As for the experimental part: E. coli MRE600 cells were grown at 37° C. in LB medium until OD^600=1. Cells were centrifuged at 4° C., and pellets were resuspended in buffer A (20 mM Tris HCl pH 7.5; 200 mM NH4Cl; 20 mM MgCl2; 0.1 mM EDTA; 6 mM β-mercaptoethanol) and lysed using a French press at 1.6 kbar. The crude lysate was centrifuged (18 200 rpm) for 30 mn at 4° C. The supernatant was further centrifuged (47000 rpm) at 4° C. for 4 hours and the pellet resuspended in 12.5 ml of buffer A. This solution was laid on a 30% sucrose cushion and centrifuged (34 000 rpm) for 19 hours at 4° C. The ribosome pellet was resuspended in 12.5 ml buffer B (20 mM Tris HCl pH 7.5; 50 mM NH4Cl; 10 mM MgCl2; 0.1 mM EDTA; 6 mM β-mercaptoethanol) and centrifuged again (18 200 rpm) for 1 hour at 4° C. The supernatant was concentrated on Centrikon 100K (Millipore) and washed extensively with ITC 70S buffer. Ribosome concentration was determined by UV absorption at 260 nm. Samples were snap frozen in liquid nitrogen and kept at −80° C.
ITC experiments were performed on a iTC200 (Microcal Malvern Panalytical) or PEAQ-ITC instrument (Microcal Malvern Panalytical). The E. coli SC were washed extensively with ITC buffer (R1 buffer: 10 mM Hepes pH 7.4, 0.15 M NaCl, 3 mM EDTA) on Centrikon 10K at 4° C. before ITC experiments. […] Similarly, E. coli 70S ribosome particles were also washed extensively with ITC 70S buffer (50 mM Tris HCl pH7.5, 30 mM KCl, 70 mM NH4Cl, 7 mM MgCl2, 1 mM DTT, 5% glycerol) on Centrikon 100K at 4° C. before ITC experiments. Peptides (100 to 400 μM) were titrated at 30° C. (303.15 K) in sequential injections (usually 2 μl each) into a SC (20 or 30 μM) or 70S (10 to 15 μM) solution. Data were corrected from control experiments in which peptides were injected in ITC buffer solution. Each titration was performed at least twice. Analyses of experimental data were performed with AFFINImeter software (https://www.affinimeter.com; S4S, Santiago de Compostela, Spain).
The lack of interaction with the ribosome of E. coli has been measured by ITC at 30° C.:
The interactions of these peptides with the E. coli SC (beta ring) and the ribosome were measured by ITC at […]: […]

The next test addresses Human PCNA (Homo sapiens, UniProt P12004). As to the kind of experiment: ITC, peptide interaction with human PCNA. It counts as binding. The settings on record: ITC 30° C., Human PCNA. The method, then: The inventors have compared the affinities of the prototypical P7 SC-binding peptide for the bacterial SC and for the eukaryotic functional homolog “Proliferating Cell Nuclear Antigen” PCNA. The same analysis was performed with the DPD1 peptide that contains a well-described specific PCNA Interacting Peptide (PIP) sequence ([…]).

T1 sequence (P0A988 whole entry): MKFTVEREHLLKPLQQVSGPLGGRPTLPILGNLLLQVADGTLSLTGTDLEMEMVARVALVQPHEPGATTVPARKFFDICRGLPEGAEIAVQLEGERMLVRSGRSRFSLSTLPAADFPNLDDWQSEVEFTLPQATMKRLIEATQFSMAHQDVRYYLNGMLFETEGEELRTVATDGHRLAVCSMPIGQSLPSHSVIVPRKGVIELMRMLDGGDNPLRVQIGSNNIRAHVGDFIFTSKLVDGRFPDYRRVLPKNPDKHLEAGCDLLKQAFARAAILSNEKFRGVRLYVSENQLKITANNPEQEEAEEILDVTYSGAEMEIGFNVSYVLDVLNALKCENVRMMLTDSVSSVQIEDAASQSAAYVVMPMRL
Human PCNA, sequence (P12004 whole entry): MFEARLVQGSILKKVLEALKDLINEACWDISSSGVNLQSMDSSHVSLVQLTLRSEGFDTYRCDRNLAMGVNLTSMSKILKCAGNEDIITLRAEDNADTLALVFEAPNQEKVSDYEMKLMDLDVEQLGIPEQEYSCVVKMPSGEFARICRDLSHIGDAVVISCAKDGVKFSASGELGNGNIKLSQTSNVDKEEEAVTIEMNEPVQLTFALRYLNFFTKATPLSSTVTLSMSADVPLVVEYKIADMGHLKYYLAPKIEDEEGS

As to `CC[C@H](C)[C@H](NC(=O)[C@@H]1CCCN1C(=O)[C@H](CCCNC(=N)N)NC(=O)[C@@H]1CCCN1C(=O)[C@@H]1CCCN1C(=O)[C@@H](NC(=O)[C@@H]1CCCN1C(=O)[C@H](CCCNC(=N)N)NC(=O)[C@@H]1CCCN1C(=O)[C@H](CC(C)C)NC(=O)[C@H](Cc1ccc(O)cc1)NC(=O)[C@H](CO)NC(=O)CNC(=O)[C@H](CCCCN)NC(=O)[C@H](CC(=O)O)NC(=O)[C@@H](NC(=O)[C@H](CCCCN)NC(=O)c1ccc2c(c1)C(=O)OC21c2ccc(O)cc2Oc2cc(O)ccc21)C(C)C)[C@@H](C)O)C(=O)N[C@@H](Cc1ccc(O)cc1)C(=O)N[C@@H](CC(N)=O)C(=O)N[C@@H](CCCNC(=N)N)C(=O)N[C@@H](CC(N)=O)C(=O)NCC(=O)N1CCC[C@H]1C(=O)N[C@@H](CCCNC(=N)N)C(=O)N[C@@H](CC1CCCCC1)C(=O)N[C@@H](Cc1ccccc1)C(=O)N[C@@H](CCC(N)=O)C(=O)N[C@@H](CC(C)C)C(=O)N[C@@H](CC(=O)O)C(=O)O` [Peptide P72], the “MIC (μM)” value against E. coli D22 strain (D22 strain) is greater than 269.9 µM. In addition, in test [1] (ITC 30° C.), the “interaction with ^EcSC, in words” value is “do not interact”; the “Kd (nM)” value is “Ni”; the “ΔG (kcal/mole)” value is given as “Ni”; the “−TΔS (kcal/mole)” value was “Ni”. The “ΔH (kcal/mole)” value in test [1] is on record as “Ni”. Besides, in the test with E. coli D22 cells (FITC staining after exposure to equal amounts), the “entry into E. coli cells, times less efficiently than P122” value is on record as “about 3 times”. Besides, in test [2], the dissociation constant Kd is greater than 10 µM, the “ΔG” value was -5.98 kcal/mol, the “ΔH” value is -8.92 kcal/mol and the “−TΔS” value is 2.94 kcal/mol.
As to `CC[C@H](C)[C@H](NC(=O)[C@@H]1CCCN1C(=O)[C@H](CCCNC(=N)N)NC(=O)[C@@H]1CCCN1C(=O)[C@@H]1CCCN1C(=O)[C@@H](NC(=O)[C@@H]1CCCN1C(=O)[C@H](CCCNC(=N)N)NC(=O)[C@@H]1CCCN1C(=O)[C@H](CC(C)C)NC(=O)[C@H](Cc1ccc(O)cc1)NC(=O)[C@H](CO)NC(=O)CNC(=O)[C@H](CCCCN)NC(=O)[C@H](CC(=O)O)NC(=O)[C@@H](NC(=O)[C@H](CCCCN)NC(=O)c1ccc2c(c1)C(=O)OC21c2ccc(O)cc2Oc2cc(O)ccc21)C(C)C)[C@@H](C)O)C(=O)N[C@@H](Cc1ccc(O)cc1)C(=O)N[C@@H](CC(N)=O)C(=O)N[C@@H](CCCNC(=N)N)C(=O)N[C@@H](CC(N)=O)C(N)=O` [Peptide P122], in the test on E. coli D22 strain (D22 strain), the “MIC (μM)” value lay within 181 to 362 µM and the “MIC (μg/ml)” value lay in the range of 512 to 1024 µg/mL. For the same compound, the “fold increase in MIC as compared to Py” value in the test on E. coli D22 strain (E. coli D22) was in the range of 64 to 512 fold. In test [1] (ITC 30° C.), the “interaction with ^EcSC, in words” value is “do not interact”; the “Kd (nM)” value is recorded as “Ni”; the “ΔG (kcal/mole)” value was “Ni”; the “−TΔS (kcal/mole)” value is “Ni”. Further, the “ΔH (kcal/mole)” value in test [1] is reported as “Ni”. For the same compound, the “penetration into E. coli cells, times more efficiently than P72 or P150” value in the test on E. coli D22 cells (average FITC signal of more than 100 bacteria) is “about 3 times”. Also, in test [2], the Kd is greater than 10 µM, the “ΔG” value is -6.91 kcal/mol, the “ΔH” value was -20.1 kcal/mol and the “−TΔS” value was determined as 13.3 kcal/mol.
As for “peptide that contains a well-described specific PCNA Interacting Peptide (PIP) sequence (QKKITDYF) [DPD1]”, in test [1] (ITC 30° C., specificity comparison with PCNA), the “interaction with E.coli SC, in words” value is recorded as “no interaction”. At Human PCNA, the affinity, expressed as Kd, was 0.158 µM and the “ΔH” value is -9.94 kcal/mol.
